In the supplement of paper PMC10307832:

Columns and labels:
Experiment in all cases: relative viability (nuclei count vs DMSO), 5 days (fraction); higher = more cells survive
QS11 + Luminespib = compound: C1CC2=C(C1)C=C(C=C2)OC3=NC(=C4C(=N3)N(C=N4)CC5=CC=C(C=C5)C6=CC=CC=C6)N[C@@H](CC7=CC=CC=C7)CO [QS11] + CCNC(=O)c1noc(-c2cc(C(C)C)c(O)cc2O)c1-c1ccc(CN2CCOCC2)cc1 [Luminespib] (partner 0.01 µM)
How it was run: (§1)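 Nuclei were stained with Hoechst during a one-step fixation (final 0.05% Triton X-100, 1% formaldehyde, 1 ug/ml Hoechst) carried out 5 days after dosing, then counted on 4× images. The cells, lung cancer lines in 1536-well plates, had been dosed by pin tool the day after seeding with one drug alone or a fixed anchor-drug dose plus five library-drug doses (not always all listed) in √10 steps. Relative viability is the nuclei count in treated wells divided by that in vehicle wells, and each value is the median of duplicate plates.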

QS11 + Lapatinib = compound: C1CC2=C(C1)C=C(C=C2)OC3=NC(=C4C(=N3)N(C=N4)CC5=CC=C(C=C5)C6=CC=CC=C6)N[C@@H](CC7=CC=CC=C7)CO [QS11] + CS(=O)(=O)CCNCc1ccc(-c2ccc3ncnc(Nc4ccc(OCc5cccc(F)c5)c(Cl)c4)c3c2)o1 [Lapatinib] (partner 2 µM)
How it was run: as §1

[1] = compound: C[As](C)SC[C@H](NC(=O)CC[C@H](N)C(=O)O)C(=O)NCC(=O)O [Darinaparsin] + CS(=O)(=O)N1CCN(Cc2cc3nc(-c4cccc5[nH]ncc45)nc(N4CCOCC4)c3s2)CC1 [Pictilisib] (partner 1 µM)
How it was run: as §1

QS11 + AZD7762 = compound: C1CC2=C(C1)C=C(C=C2)OC3=NC(=C4C(=N3)N(C=N4)CC5=CC=C(C=C5)C6=CC=CC=C6)N[C@@H](CC7=CC=CC=C7)CO [QS11] + NC(=O)Nc1cc(-c2cccc(F)c2)sc1C(=O)N[C@H]1CCCNC1 [AZD7762] (partner 0.2 µM)
How it was run: as §1

Cell Line: UMC-11
- relative viability (QS11 + Luminespib; first compound 0.08 µM): 1.01
- relative viability (QS11 + Luminespib; first compound 0.253 µM): 1.13
- relative viability (QS11 + Luminespib; first compound 0.8 µM): 0.995
- relative viability (QS11 + Luminespib; first compound 2.53 µM): 1.27
- relative viability (QS11 + Luminespib; first compound 8 µM): 1.12
- relative viability (QS11 + Lapatinib; first compound 0.08 µM): 0.873
- relative viability (QS11 + Lapatinib; first compound 0.253 µM): 0.984
- relative viability (QS11 + Lapatinib; first compound 0.8 µM): 0.874
- relative viability (QS11 + Lapatinib; first compound 2.53 µM): 1.16
- relative viability (QS11 + Lapatinib; first compound 8 µM): 1.33
- relative viability ([1]; first compound 0.08 µM): 0.897
- relative viability ([1]; first compound 0.8 µM): 0.821
- relative viability ([1]; first compound 2.53 µM): 0.75
- relative viability ([1]; first compound 8 µM): 0.915

Cell Line: LCLC-103H
- relative viability (QS11 + Luminespib; first compound 0.08 µM): 0.661
- relative viability (QS11 + Luminespib; first compound 0.253 µM): 1.17
- relative viability (QS11 + Luminespib; first compound 0.8 µM): 0.747
- relative viability (QS11 + Luminespib; first compound 2.53 µM): 0.915
- relative viability (QS11 + Luminespib; first compound 8 µM): 1.02
- relative viability (QS11 + AZD7762; first compound 0.08 µM): 0.861
- relative viability (QS11 + AZD7762; first compound 0.253 µM): 0.775
- relative viability (QS11 + AZD7762; first compound 2.53 µM): 0.772
- relative viability (QS11 + AZD7762; first compound 8 µM): 0.881
- relative viability ([1]; first compound 0.08 µM): 0.52
- relative viability ([1]; first compound 0.8 µM): 0.566
- relative viability ([1]; first compound 2.53 µM): 0.593
- relative viability ([1]; first compound 8 µM): 0.604

Cell Line: LU99A
- relative viability (QS11 + Luminespib; first compound 0.08 µM): 0.238
- relative viability (QS11 + Luminespib; first compound 0.253 µM): 0.269
- relative viability (QS11 + Luminespib; first compound 0.8 µM): 0.284
- relative viability (QS11 + Luminespib; first compound 2.53 µM): 0.273
- relative viability (QS11 + Luminespib; first compound 8 µM): 0.335
- relative viability (QS11 + Lapatinib; first compound 0.08 µM): 0.83
- relative viability (QS11 + Lapatinib; first compound 0.253 µM): 1.17
- relative viability (QS11 + Lapatinib; first compound 0.8 µM): 1.15
- relative viability (QS11 + Lapatinib; first compound 2.53 µM): 0.963
- relative viability (QS11 + Lapatinib; first compound 8 µM): 0.637
- relative viability (QS11 + AZD7762; first compound 0.08 µM): 0.326
- relative viability (QS11 + AZD7762; first compound 0.253 µM): 0.348
- relative viability (QS11 + AZD7762; first compound 0.8 µM): 0.398
- relative viability (QS11 + AZD7762; first compound 2.53 µM): 0.362
- relative viability (QS11 + AZD7762; first compound 8 µM): 0.239
- relative viability ([1]; first compound 0.08 µM): 0.336
- relative viability ([1]; first compound 0.8 µM): 0.313
- relative viability ([1]; first compound 2.53 µM): 0.294
- relative viability ([1]; first compound 8 µM): 0.322

Cell Line: LXF-289
- relative viability (QS11 + Luminespib; first compound 0.08 µM): 0.544
- relative viability (QS11 + Luminespib; first compound 0.253 µM): 0.739
- relative viability (QS11 + Luminespib; first compound 0.8 µM): 0.544
- relative viability (QS11 + Luminespib; first compound 2.53 µM): 0.519
- relative viability (QS11 + Luminespib; first compound 8 µM): 0.551
- relative viability (QS11 + Lapatinib; first compound 0.08 µM): 0.941
- relative viability (QS11 + Lapatinib; first compound 0.253 µM): 0.909
- relative viability (QS11 + Lapatinib; first compound 0.8 µM): 0.757
- relative viability (QS11 + Lapatinib; first compound 2.53 µM): 0.821
- relative viability (QS11 + Lapatinib; first compound 8 µM): 0.739
- relative viability (QS11 + AZD7762; first compound 0.08 µM): 1.14
- relative viability (QS11 + AZD7762; first compound 0.253 µM): 1.08
- relative viability (QS11 + AZD7762; first compound 0.8 µM): 0.899
- relative viability (QS11 + AZD7762; first compound 2.53 µM): 1
- relative viability (QS11 + AZD7762; first compound 8 µM): 0.93
- relative viability ([1]; first compound 0.08 µM): 0.806
- relative viability ([1]; first compound 0.8 µM): 0.749
- relative viability ([1]; first compound 2.53 µM): 0.597
- relative viability ([1]; first compound 8 µM): 0.981

Cell Line: EPLC-272H
- relative viability (QS11 + Luminespib; first compound 0.253 µM): 0.269
- relative viability (QS11 + Luminespib; first compound 0.8 µM): 0.311
- relative viability (QS11 + Luminespib; first compound 2.53 µM): 0.385
- relative viability (QS11 + Luminespib; first compound 8 µM): 0.284
- relative viability (QS11 + Lapatinib; first compound 0.08 µM): 1.01
- relative viability (QS11 + Lapatinib; first compound 0.253 µM): 0.855
- relative viability (QS11 + Lapatinib; first compound 0.8 µM): 0.953
- relative viability (QS11 + Lapatinib; first compound 2.53 µM): 0.98
- relative viability (QS11 + Lapatinib; first compound 8 µM): 0.871
- relative viability (QS11 + AZD7762; first compound 0.253 µM): 0.202
- relative viability (QS11 + AZD7762; first compound 0.8 µM): 0.246
- relative viability (QS11 + AZD7762; first compound 2.53 µM): 0.278
- relative viability (QS11 + AZD7762; first compound 8 µM): 0.247
- relative viability ([1]; first compound 0.08 µM): 0.295
- relative viability ([1]; first compound 0.8 µM): 0.332
- relative viability ([1]; first compound 2.53 µM): 0.266
- relative viability ([1]; first compound 8 µM): 0.311

Cell Line: LOU-NH91
- relative viability (QS11 + Luminespib; first compound 0.08 µM): 0.361
- relative viability (QS11 + Luminespib; first compound 0.253 µM): 0.361
- relative viability (QS11 + Luminespib; first compound 0.8 µM): 0.34
- relative viability (QS11 + Luminespib; first compound 2.53 µM): 0.308
- relative viability (QS11 + Luminespib; first compound 8 µM): 0.368
- relative viability (QS11 + Lapatinib; first compound 0.08 µM): 0.742
- relative viability (QS11 + Lapatinib; first compound 0.253 µM): 0.622
- relative viability (QS11 + Lapatinib; first compound 2.53 µM): 0.731
- relative viability (QS11 + Lapatinib; first compound 8 µM): 0.685
- relative viability (QS11 + AZD7762; first compound 0.08 µM): 0.764
- relative viability (QS11 + AZD7762; first compound 0.253 µM): 0.707
- relative viability (QS11 + AZD7762; first compound 0.8 µM): 0.751
- relative viability (QS11 + AZD7762; first compound 2.53 µM): 0.719
- relative viability (QS11 + AZD7762; first compound 8 µM): 0.818
- relative viability ([1]; first compound 0.08 µM): 0.535
- relative viability ([1]; first compound 0.8 µM): 0.492
- relative viability ([1]; first compound 2.53 µM): 0.553
- relative viability ([1]; first compound 8 µM): 0.56

Cell Line: HCC-44
- relative viability (QS11 + Luminespib; first compound 0.08 µM): 1.08
- relative viability (QS11 + Luminespib; first compound 0.253 µM): 1.18
- relative viability (QS11 + Luminespib; first compound 0.8 µM): 0.805
- relative viability (QS11 + Luminespib; first compound 2.53 µM): 0.937
- relative viability (QS11 + Luminespib; first compound 8 µM): 1.24
- relative viability (QS11 + Lapatinib; first compound 0.08 µM): 1.07
- relative viability (QS11 + Lapatinib; first compound 0.253 µM): 0.936
- relative viability (QS11 + Lapatinib; first compound 0.8 µM): 0.668
- relative viability (QS11 + Lapatinib; first compound 2.53 µM): 0.955
- relative viability (QS11 + Lapatinib; first compound 8 µM): 0.888
- relative viability (QS11 + AZD7762; first compound 0.08 µM): 1.11
- relative viability (QS11 + AZD7762; first compound 0.253 µM): 0.995
- relative viability (QS11 + AZD7762; first compound 0.8 µM): 0.65
- relative viability (QS11 + AZD7762; first compound 2.53 µM): 1.02
- relative viability (QS11 + AZD7762; first compound 8 µM): 1.02
- relative viability ([1]; first compound 0.08 µM): 0.852
- relative viability ([1]; first compound 0.8 µM): 0.574
- relative viability ([1]; first compound 2.53 µM): 0.44
- relative viability ([1]; first compound 8 µM): 0.677

Cell Line: NCI-H1651
- relative viability (QS11 + Luminespib; first compound 0.08 µM): 1.05
- relative viability (QS11 + Luminespib; first compound 0.253 µM): 0.923
- relative viability (QS11 + Luminespib; first compound 0.8 µM): 0.75
- relative viability (QS11 + Luminespib; first compound 2.53 µM): 0.714
- relative viability (QS11 + Luminespib; first compound 8 µM): 0.752
- relative viability (QS11 + Lapatinib; first compound 0.08 µM): 0.941
- relative viability (QS11 + Lapatinib; first compound 0.253 µM): 0.872
- relative viability (QS11 + Lapatinib; first compound 0.8 µM): 0.828
- relative viability (QS11 + Lapatinib; first compound 2.53 µM): 1.01
- relative viability (QS11 + Lapatinib; first compound 8 µM): 0.76
- relative viability (QS11 + AZD7762; first compound 0.08 µM): 0.445
- relative viability (QS11 + AZD7762; first compound 0.253 µM): 0.481
- relative viability (QS11 + AZD7762; first compound 0.8 µM): 0.487
- relative viability (QS11 + AZD7762; first compound 2.53 µM): 0.458
- relative viability (QS11 + AZD7762; first compound 8 µM): 0.404
- relative viability ([1]; first compound 0.08 µM): 0.721
- relative viability ([1]; first compound 0.8 µM): 0.554
- relative viability ([1]; first compound 2.53 µM): 0.471
- relative viability ([1]; first compound 8 µM): 0.865
